Reference: US20190223437A1, “ACTIVE COMPOUND COMBINATIONS COMPRISING A 5-SUBSTITUTED IMIDAZOLE DERIVATIVE” (BAYER CROPSCIENCE AKTIENGESELLSCHAFT, priority 2016, published 2019)
Marks after values point to notes of the source that are not given here.

Assay: Measurement of Log P values by HPLC on reversed phase columns (EEC directive 79/831 Annex V.A8)
Assay type: physicochemical
Conditions: not given

SMILES	LogP
OC(Cc1ccc(Cl)cc1F)(Cn1cncc1Cl)C1(Cl)CC1 (single isomer, unassigned) [Example I-113]	2.54^[a]
COC(=O)c1cncn1CC(O)(Cc1ccccc1Cl)C1(Cl)CC1 (stereo not drawn) [Example I-01]	2.82^[a]
Cc1cncn1CC(O)(Cc1ccccc1Cl)C1(Cl)CC1 (stereo not drawn) [Example I-03]	1.72^[a]
OC(Cc1ccccc1Cl)(Cn1cncc1Br)C1(Cl)CC1 (stereo not drawn) [Example I-04]	2.27^[a]
OC(Cn1cncc1Cl)(C(F)c1ccccc1Cl)C1(Cl)CC1 (stereo not drawn) [Example I-05]	2.17^[a]
OC(Cc1cccnc1Cl)(Cn1cncc1Cl)C1(Cl)CC1 (stereo not drawn) [Example I-07]	1.57^[a]
OC(Cc1ccc(F)cc1Cl)(Cn1cncc1Cl)C1(Cl)CC1 (stereo not drawn) [Example I-08]	2.47^[a]
Cc1cncn1CC(O)(Cc1cccnc1Cl)C1(Cl)CC1 (stereo not drawn) [Example I-10]	1.22^[a]
OC(Cc1c(Cl)ccnc1Cl)(Cn1cncc1Cl)C1(Cl)CC1 (stereo not drawn) [Example I-11]	2.02^[a]
Cc1cncn1CC(O)(C(F)c1ccccc1Cl)C1(Cl)CC1 (stereo not drawn) [Example I-13]	1.75^[a]
OC(Cc1ccccc1Cl)(Cn1cncc1I)C1(Cl)CC1 (stereo not drawn) [Example I-14]	2.14^[a]
OC(Cc1ccccc1Cl)(Cn1cncc1C(F)(F)F)C1(Cl)CC1 (stereo not drawn) [Example I-15]	3.63^[a]
OC(Cc1ccccc1Cl)(Cn1cncc1F)C1(Cl)CC1 (stereo not drawn) [Example I-16]	1.94^[a]
OC(Cc1cc(Cl)ncc1Cl)(Cn1cncc1Cl)C1(Cl)CC1 (stereo not drawn) [Example I-17]	2.18^[a]
OC(Cc1cc(F)ncc1Cl)(Cn1cncc1Cl)C1(Cl)CC1 (stereo not drawn) [Example I-18]	2.01^[a]
N#CCc1cncn1CC(O)(Cc1ccccc1Cl)C1(Cl)CC1 (stereo not drawn) [Example I-21]	1.66^[a]

More lines, now with the values ahead:

LogP	SMILES
3.55^[a]	CC(C)(C)CC(O)(Cc1ccccc1Cl)Cn1cncc1C#N (racemic) [Example I-83]
2.84^[a]	N#Cc1cncn1CC(O)(Cc1ccccc1Cl)CC1CC1 (racemic) [Example I-84]
3.31^[a]	N#Cc1cncn1CC(O)(Cc1cccc(Cl)c1Cl)C1CCC1 (racemic) [Example I-85]
3.37^[a]	CC(C)(C)CC(O)(Cc1ccc(Cl)cc1)Cn1cncc1C#N (racemic) [Example I-86]
2.62^[a]	OC(Cc1ccccc1C(F)(F)F)(Cn1cncc1Cl)C1(Cl)CC1 (racemic) [Example I-89]
2.18^[a]	N#Cc1cncn1CC(O)(Cc1ccncc1C(F)(F)F)C1(Cl)CC1 (racemic) [Example I-92]
2.78^[a]	N#Cc1cncn1CC(O)(Cc1ccc(Cl)cc1F)C1(F)CC1 (racemic) [Example I-96]
2.53^[a]	N#Cc1cncn1CC(O)(Cc1ccccc1Cl)C1(F)CC1 (racemic) [Example I-98]
2.35^[a]	N#Cc1cncn1CC(O)(Cc1ccc(F)cc1)C1(F)CC1 (racemic) [Example I-100]
2.08^[a]	CSc1cncn1CC(O)(Cc1ccccc1Cl)C1(Cl)CC1 (stereo not drawn) [Example I-22]
2.32^[a]	OC(Cn1cncc1Br)(C(F)c1ccccc1Cl)C1(Cl)CC1 (stereo not drawn) [Example I-23]
2.82^[a]	N#Cc1cncn1CC(O)(C(F)c1ccccc1Cl)C1(Cl)CC1 (stereo not drawn) [Example I-24]
1.56^[a]	OC(Cc1cccnc1Cl)(Cn1cncc1Br)C1(Cl)CC1 (stereo not drawn) [Example I-25]
2.01^[a]	N#Cc1cncn1CC(O)(Cc1cccnc1Cl)C1(Cl)CC1 (stereo not drawn) [Example I-26]
2.01^[a]	OC(Cn1cncc1Cl)(C(F)c1ccccc1F)C1(Cl)CC1 (stereo not drawn) [Example I-28]
2.55^[a]	OC(Cc1ccc(Cl)cc1F)(Cn1cncc1Br)C1(Cl)CC1 (stereo not drawn) [Example I-30]
2.07^[a]	OC(Cc1ccccc1F)(Cn1cncc1Cl)C1(Cl)CC1 (stereo not drawn) [Example I-32]
2.78^[a]	N#Cc1cncn1CC(O)(Cc1ccc(F)c(F)c1F)C1CCC1 (stereo not drawn) [Example I-104]

Same assay, conditions: method [a]: LC-UV, acidic range, 0.1% formic acid in water and acetonitrile as eluent; Table 1, compounds of formula (I)

LogP	SMILES
2.32	OC(Cc1ccccc1Cl)(Cn1cncc1Cl)C1(Cl)CC1 (stereo not drawn) [Example I-02]

Same assay, conditions: method [c]: LC-UV, acidic range, 0.1% phosphoric acid and acetonitrile as eluent; Table 1

LogP	SMILES
2.00	OC(Cc1ccccc1Cl)(Cn1cncc1Cl)C1(Cl)CC1 (stereo not drawn) [Example I-02]
